Laboratory results as given in US8835617B2, “Polynucleotides encoding a human TRIM-Cyp fusion polypeptide, compositions thereof, and methods of using same” (priority 2008, dated 2014).

Tested on: HIV-1
Conditions: of CD45^+GFP^+ cells
From the text: HIV-1 infection spreads from cell to cell at high titer in complex lymphoid tissues with a specific hierarchy of T cell destruction and distinct kinetics in vivo (Douek et al., 2003). […] This mouse model takes advantage of the lack of functional B, T, and NK cells in Rag2^−/−γc^−/− mice and allows for improved engraftment of xenografts as well de novo intrathymic generation of human T cells (Baenziger et al., 2008; Mazurier et al., 1999). Briefly, CD34^+ hematopoietic stem and progenitor cells are enriched from cord blood of healthy donors by MACS and transplanted intrahepatically into irradiated, newborn Rag2^−/−γc^−/− mice (FIG. 63A). 2-4 months post-transplant, reconstitution of peripheral blood is assessed by flow cytometry, and mice with more that 5% hCD45^+ cells in peripheral blood are infected intraperitoneally (i.p.) with HIV-1 (FIG. 63A).
An aliquot of cells was maintained in culture with the subsequent addition of SCF, TPO, and Flt3L, and assessed for GFP-expression 72 hours post-transduction.
huRag2^−/−γc^−/− mice were generated as previously described^1. Briefly, fresh human cord blood was obtained with parent written informed consent from healthy full-term newborns (Department of Gynecology and Obstetrics, Ospedale San Giovanni, Bellinzona). […] Traggiai, E., et al. Development of a human adaptive immune system in cord blood cell-transplanted mice. […]

Which “Post-infection GFP^+ CD3” value does the source give for “hT5Cyp: human TRIM5α fused at serine 322 to human cyclophilin A, SEQ ID NO:12” here?
Its value is 0%.
